Where a SMILES comes first, the peptide text is derived from it. The star is where a group is joined. Cbz = O=C(OCc1ccccc1)*; CH2F = FC*
Columns and labels:
[1] = test system: POMCha-overexpressing Marchf6-KO N43/5 cells; test: Cell viability (CellTiter-Glo) of POMCha-overexpressing Marchf6-KO N43/5 cells; type: cell-based, mouse
Procedure: To understand the functional or mechanistic association between Marchf6-mediated POMC degradation and ferroptosis, lipid ROS levels were compared in N43/5 cells overexpressing POMCha using a lipid peroxidation sensor C11-BODIPY^581/591. Specifically, WT or Marchf6-KO N43/5 cells were transfected with pCH4129 (POMCha) for 48 hours, and the medium was replaced with a culture medium containing 2 μM C11-BODIPY^581/591 (Thermo Fisher Scientific, D3861). The cells were incubated at 37° C. for 30 minutes, and the fluorescent probe-treated cells were trypsinized, transferred to a 15 ml Falcon tube, washed three times with 1 ml of ice-cold PBS, and then transferred to an ice-cold round-bottom polystyrene tube (Corning, 352235). The amount of intracellular lipid ROS in […] was measured using CytoFLEX LX (Beckman Coulter) using fluorescein isothiocyanate (FITC) and analyzed using FlowJo v10.8.1 (BD Bioscience). In addition, cell viability was analyzed using a CellTiter-Glo luminescent 3D cell viability assay kit (Promega, G9241) and a multimode plate reader (TECAN, Spark 10 M). At this time, when the inhibition of cell death was evaluated, WT or Marchf6-KO N43/5 cells expressing pCH60 (empty vector) or pCH4129 (POMCha) (final concentration of […] each) were treated with 5 μM Fer-1, 20 μM Z-VAD-FMK or 40 μM Nec-1, and incubated for 24 hours, and cell viability was analyzed. In addition, the intracellular NADP(H) level was measured using a NADP/NADPH-Glo assay kit (Promega, G9081) and a multimode plate reader (TECAN, Spark 10 M). Further, LDH activity was measured using the Cytotoxicity Detection Kit Plus (LDH) (Sigma, 4744926001).
Through Examples, since Marchf6 mediated the degradation of POMC, it was expected that loss of Marchf6 would make POMC neurons hypersensitive to POMC-induced ferroptosis. Therefore, pCH60 (empty vector), pCH879 (Marchf63f), pCH880 (Marchf6flag^C9A), or pCH4170 (Marchf6flag^P460A) was transfected into WT or Marchf6-KO N43/5 cells, and the degree of ferroptosis induction in POMC neurons was analyzed as in Example 6-1.

[2] = test system: Gpx4, CHOP, Nox2, and Nox4; test: Immunoblotting of Gpx4, CHOP, Nox2 and Nox4 in POMCha-overexpressing Marchf6-KO N43/5 cells; type: cell-based, mouse

CN1C(=O)C(Cc2c[nH]c3ccccc23)NC1=S (stereo not shown) [Nec-1, necrostatin-1, reference compound]
decreased viability of POMCha-overexpressing Marchf6-KO N43/5 cells, effect of treatment ([1]; 40 μM Nec-1, 24 hours): not restored

COC(=O)C[C@H](NC(=O)[C@H](C)NC(=O)[C@@H](NC(=O)OCc1ccccc1)C(C)C)C(=O)CF [Z-VAD, Z-VAD-FMK, reference compound] (Cbz-Val-Ala-Asp(OMe)-CH2F)
decreased viability of POMCha-overexpressing Marchf6-KO N43/5 cells, effect of treatment ([1]; 20 μM Z-VAD-FMK, 24 hours): not restored

B1: Marchf63f^C9A: catalytically inactive Marchf6 mutant (pCH880) (protein, UniProt Q6ZQ89 1-909, looked up, variant C9A)
E3 ubiquitin-protein ligase …: MDTAEEDIARVCRSEGTPEKPLYHPCVCTGSIKFIHQECLVQWLKHSRKEYCELCKHRFAFTPIYSPDMPSRLPIQDIFAGLVTSIGTAIRYWFHYTLVAFAWLGVVPLTACRIYKCLFTGSVSSLLTLPLDMLSTENLLADCLQGCFVVTCTLCAFISLVWLREQIVHGGAPIWLEHAAPPFNAAGHHQNEAPVGGNGAENPAADQPANPAGENAVLGENPDAQDGQAEEEEEDNEEEDDAGVEDAADANNGAQDDMNWNALEWDRAAEELTWERMLGLDGSLVFLEHVFWVVSLNTLFILVFAFCPYHIGHFSLVGLGFEEHVQASHFEGLITTIVGYILLAITLIICHALATLVKFHRSRRLLGVCYIVVKVSLLVVVEIGVFPLICGWWLDICSLEMFDATLKDRELSFQSAPGTTMFLHWLVGMVYVFYFASFILLLREVLRPGVLWFLRNLNDPDFNPVQEMIHLPIYRHLRRFILSVIVFGSIVLLMLWLPIRIIKSLLPNFLPYNVMLYSDAPVSELSLELLLLQVVLPALLEQGHTRQWLKGLVRAWTVTAGYLLDLHSYLLGDQEENENSANQQVNNNQPARNNNAVPAGEGLHAAHQAILQQGGPVGFQPYRRPLNFPLRIFLLIVFMCITLLIASLICLTLPVFAGRWLMSFWTGTAKIHELYTAACGLYVCWLTIRAVTVLVAWMPQGRRVIFQKVKEWSLMIMKTLIVAVLLAGVVPLLLGLLFELVIVAPLRVPLDQTPLFYPWQDWALGVLHAKIIAAITLMGPQWWLKTVIEQVYANGIRNIDLHYIIRKLAAPVISVLLLSLCVPYVIASGAVPLLGVTAEMQNLVHRRIYPFLLMVVVLMGILSFQVRQFKRLYEHIKNDKYLVGQRLVNYERKSGKQGPSTPPPVSSQE
modifications: C-terminal triple FLAG tag
reduced viability of POMCha-overexpressing Marchf6-deficient N43/5 cells, effect of ectopic expression ([1]; ectopic expression by transfection): not restored | expression levels of Gpx4, CHOP, Nox2, and Nox4 proteins, effect of expression of construct [2]: not restored

— patent US20260258121A1, “USES OF POMC-SPECIFIC ANTIBODY AND MARCHF6” (KOREA UNIVERSITY RESEARCH AND BUSINESS FOUNDATION, priority 2023, published 2026)
